Several values for one entry are separate records, joined by “and”; a condition that tells them apart may be missing. Identical values can stand only once.

PDE10A enzyme, sequence (Q9Y233 716-1055): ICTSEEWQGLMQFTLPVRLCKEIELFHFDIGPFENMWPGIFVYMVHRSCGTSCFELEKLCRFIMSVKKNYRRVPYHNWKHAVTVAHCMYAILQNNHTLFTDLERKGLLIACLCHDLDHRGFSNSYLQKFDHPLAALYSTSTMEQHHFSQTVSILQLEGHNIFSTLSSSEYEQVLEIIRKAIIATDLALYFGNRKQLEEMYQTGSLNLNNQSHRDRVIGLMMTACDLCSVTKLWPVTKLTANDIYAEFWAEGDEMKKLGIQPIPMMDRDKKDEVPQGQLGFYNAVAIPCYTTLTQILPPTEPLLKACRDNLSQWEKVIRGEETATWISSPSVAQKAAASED

The test addresses PDE10A enzyme (Homo sapiens (Human), UniProt Q9Y233). The experiment in a line: PDE10A inhibition assay. It is filed as biochemical. The conditions noted are these: tritium labeled cAMP 5 nM. The protocol: Active PDE10A enzyme is prepared in a number of ways for use in PDE assays (Loughney, K. et al. Gene 1999, 234, 109-117; Fujishige, K. et al. Eur J Biochem. 1999, 266, 1118-1127 and Soderling, S. et al. Proc. Natl. Acad. Sci. 1999, 96, 7071-7076). PDE10A can be expressed as full-length proteins or as truncated proteins, as long as they express the catalytic domain. PDE10A can be prepared in different cell types, for example insect cells or E. coli. An example of a method to obtain catalytically active PDE10A is as follows: The catalytic domain of human PDE10A (amino acids 440-779 from the sequence with accession number NP 006652) is amplified from total human brain total RNA by standard RT-PCR and is cloned into the BamH1 and Xho1 sites of the pET28a vector (Novagen). Expression in coli is performed according to standard protocols. Briefly, the expression plasmids are transformed into the BL21(DE3) E. coli strain, and 50 mL cultures inoculated with the cells allowed to grow to an OD600 of 0.4-0.6 before protein expression is induced with 0.5 mM IPTG. Following induction, the cells are incubated overnight at room temperature, after which the cells are collected by centrifugation. Cells expressing PDE10A are resuspended in 12 mL (50 mM TRIS-HCl-pH8.0, 1 mM MgCl2 and protease inhibitors). The cells are lysed by sonication, and after all cells are lysed, TritonX100 is added according to Novagen protocols.
A PDE10A assay may for example, be performed as follows: The assay is performed in 60 uL samples containing a fixed amount of the relevant PDE enzyme (sufficient to convert 20-25% of the cyclic nucleotide substrate), a buffer (50 mM HEPES7.6; 10 mM MgCl2; 0.02% Tween20), 0.1 mg/ml BSA, 225 pCi of ^3H-labelled cyclic nucleotide substrate, tritium labeled cAMP to a final concentration of 5 nM and varying amounts of inhibitors. Reactions are initiated by addition of the cyclic nucleotide substrate, and reactions are allowed to proceed for one hr at room temperature before being terminated through mixing with 15 uL 8 mg/mL yttrium silicate SPA beads (Amersham). The beads are allowed to settle for one hr in the dark before the plates are counted in a Wallac 1450 Microbeta counter. The measured signal can be converted to activity relative to an uninhibited control (100%) and IC50 values can be calculated using the XIfit extension to EXCEL.
In turn, `Cc1ncc(C)n2nc(CCc3ccc4cc5c(cc4n3)OCCO5)nc12` [7-[2-(5,8-Dimethyl-[1,2,4]triazolo[1,5-a]pyrazin-2-yl)-ethyl]-2,3-dihydro-[1,4]dioxino[2,3-g]quinoline] gave an IC50 of 4 nM.

`CCc1ccc(C)n2nc(CCc3ccc4cc(F)ccc4n3)nc12` [2-[2-(8-Ethyl-5-methyl-[1,2,4]triazolo[1,5-a]pyridin-2-yl)-ethyl]-6-fluoro-quinoline] showed an IC50 of 25 nM.

Compound `Cc1ncc(C)n2nc(/C=C/c3ccc4cc(C#N)ccc4n3)nc12` [2-[(E)-2-(5,8-Dimethyl-[1,2,4]triazolo[1,5-a]pyrazin-2-yl)-vinyl]-6-cyano-quinoline] returned an IC50 of 2100 nM.

The compound `Cc1cc(C)n2nc(CCc3ccc4ccccc4n3)nc2n1` [2-[2-(5,7-Dimethyl-[1,2,4]triazolo[1,5-a]pyrimidin-2-yl)-ethyl]-quinoline] showed an IC50 of 72 nM.

Compound `COc1cc(CCc2nc3c(OC)ccc(C)n3n2)nc2ccccc12` [4-Methoxy-2-[2-(8-methoxy-5-methyl-[1,2,4]triazolo[1,5-a]pyridin-2-yl)-ethyl]-quinoline] displayed a concentration for half-maximal inhibition (IC50) of 35 nM.

Turning to `Cc1ncc(C)n2nc(CCc3ccc4c(F)cc(F)cc4n3)nc12` [2-[2-(5,8-Dimethyl-[1,2,4]triazolo[1,5-a]pyrazin-2-yl)-ethyl]-5,7-difluoro-quinoline], it took 110 nM to reach half-maximal inhibition (IC50).

Consider `Cc1ncc(C)n2nc(CCc3ccc4cc(F)cc(F)c4n3)nc12` [2-[2-(5,8-Dimethyl-[1,2,4]triazolo[1,5-a]pyrazin-2-yl)-ethyl]-6,8-difluoro-quinoline], for which the IC50 was 300 nM.

With `Cc1cc(Cl)c2nc(CCc3nc4c(C)ncc(C)n4n3)ccc2c1` [8-Chloro-2-[2-(5,8-dimethyl-[1,2,4]triazolo[1,5-a]pyrazin-2-yl)-ethyl]-6-methyl-quinoline], the 50% inhibitory concentration (IC50) stood at 290 nM.

In turn, `Cc1cc(CCc2nc3cccc(C)n3n2)nc2ccccc12` [4-Methyl-2-[2-(5-methyl-[1,2,4]triazolo[1,5-a]pyridin-2-yl)-ethyl]-quinoline] yielded a 50% inhibitory concentration (IC50) of 140 nM.

In the case of `Cc1ncc(C)n2nc(/C=C/c3ccc4ccc(C(F)(F)F)cc4n3)nc12` [2-[(E)-2-(5,8-Dimethyl-[1,2,4]triazolo[1,5-a]pyrazin-2-yl)-vinyl]-7-trifluoromethyl-quinoline], half-maximal inhibition (IC50) required 550 nM.

For `Cc1ncc(C)n2nc(CCc3cc(F)c4ccccc4n3)nc12` [2-[2-(5,8-Dimethyl-[1,2,4]triazolo[1,5-a]pyrazin-2-yl)-ethyl]-4-fluoro-quinoline], half-maximal inhibition (IC50) was put at 28 nM.

Regarding `Cc1ncc(C)n2nc(/C=C/c3ccc4cc(OC(F)(F)F)ccc4n3)nc12` [2-[(E)-2-(5,8-Dimethyl-[1,2,4]triazolo[1,5-a]pyrazin-2-yl)-vinyl]-6-trifluoromethoxy-quinoline], the IC50 came out at 2800 nM.

The compound `Cc1cc2nc(CCc3nc4c(C)ncc(C)n4n3)ccc2cc1F` [2-[2-(5,8-Dimethyl-[1,2,4]triazolo[1,5-a]pyrazin-2-yl)-ethyl]-6-fluoro-7-methyl-quinoline] gave a half-inhibitory concentration (IC50) of 8.8 nM.

In turn, `Cc1cc(F)cc2ccc(CCc3nc4c(C)ncc(C)n4n3)nc12` [2-[2-(5,8-Dimethyl-[1,2,4]triazolo[1,5-a]pyrazin-2-yl)-ethyl]-6-fluoro-8-methyl-quinoline] displayed a half-maximal inhibitory concentration (IC50) of 2000 nM.

As to `Cc1ccc(C)n2nc(CCc3ccc4ccccc4n3)nc12` [2-[2-(5,8-Dimethyl-[1,2,4]triazolo[1,5-a]pyridin-2-yl)-ethyl]-quinoline], the concentration for half-maximal inhibition (IC50) stood at 24 nM.

`Cc1cc(C)n2cc(CCc3ccc4ccccc4n3)nc2n1` [2-[2-(5,7-Dimethyl-imidazo[1,2-a]pyrimidin-2-yl)-ethyl]-quinoline] registered an IC50 of 310 nM.

For `Cc1ncc(C)n2nc(CCc3ccc4cc(Cl)ccc4n3)nc12` [6-Chloro-2-[2-(5,8-dimethyl-[1,2,4]triazolo[1,5-a]pyrazin-2-yl)-ethyl]-quinoline], the IC50 is 42 nM.

`Cc1ccc(O)c2nc(CCc3ccc4cc(F)ccc4n3)nn12` [2-[2-(6-Fluoro-quinolin-2-yl)-ethyl]-5-methyl-[1,2,4]triazolo[1,5-a]pyridin-8-ol] registered an IC50 of 85 nM.

With `Cc1ncc(C)n2nc(CCc3ccc4cc(F)ccc4n3)nc12` [2-[2-(5,8-Dimethyl-[1,2,4]triazolo[1,5-a]pyrazin-2-yl)-ethyl]-6-fluoro-quinoline], the concentration for half-maximal inhibition (IC50) is 24 nM and 26 nM.

In turn, `COc1ccc(C)n2nc(/C=C/c3cc(Cl)c4cccc(F)c4n3)nc12` [4-Chloro-8-fluoro-2-[(E)-2-(8-methoxy-5-methyl-[1,2,4]triazolo[1,5-a]pyridin-2-yl)-vinyl]-quinoline] registered an IC50 of 270 nM.

For `Cc1ncc(C)n2nc(/C=C/c3ccc4cc(C(F)(F)F)ccc4n3)nc12` [2-[(E)-2-(5,8-Dimethyl-[1,2,4]triazolo[1,5-a]pyrazin-2-yl)-vinyl]-6-trifluoromethyl-quinoline], the 50% inhibitory concentration (IC50) came out at 490 nM.

Compound `COc1cc(CCc2nc3c(C)ncc(C)n3n2)nc2ccc(F)cc12` [2-[2-(5,8-Dimethyl-[1,2,4]triazolo[1,5-a]pyrazin-2-yl)-ethyl]-6-fluoro-4-methoxy-quinoline] displayed an IC50 of 14 nM.

With `Cc1ncc(C)n2nc(CCc3ccc4c(F)c(F)cc(F)c4n3)nc12` [2-[2-(5,8-Dimethyl-[1,2,4]triazolo[1,5-a]pyrazin-2-yl)-ethyl]-5,6,8-trifluoro-quinoline], the 50% inhibitory concentration (IC50) worked out at 360 nM.

In the case of `Cc1ncc(C)n2nc(CCc3ccc4cc5c(cc4n3)OCO5)nc12` [6-[2-(5,8-Dimethyl-[1,2,4]triazolo[1,5-a]pyrazin-2-yl)-ethyl]-[1,3]dioxolo[4,5-g]quinoline], the 50% inhibitory concentration (IC50) worked out at 13 nM.

`COc1ccc2nc(CCc3nc4nc(C)cc(C)n4n3)ccc2c1` [2-[2-(5,7-Dimethyl-[1,2,4]triazolo[1,5-a]pyrimidin-2-yl)-ethyl]-6-methoxy-quinoline]: the half-maximal inhibitory concentration (IC50) was found to be 170 nM.

`COc1cccc2nc(/C=C/c3nc4c(C)ncc(C)n4n3)ccc12` [2-[(E)-2-(5,8-Dimethyl-[1,2,4]triazolo[1,5-a]pyrazin-2-yl)-vinyl]-5-methoxy-quinoline] registered an IC50 of 19 nM.

As for `Cc1ncc(C)n2nc(CCc3ccc4c(Cl)cc(Cl)cc4n3)nc12` [5,7-Dichloro-2-[2-(5,8-dimethyl-[1,2,4]triazolo[1,5-a]pyrazin-2-yl)-ethyl]-quinoline], the IC50 amounted to 39 nM.

Regarding `Cc1cc(CCc2nc3c(C)ncc(C)n3n2)nc2ccccc12` [2-[2-(5,8-Dimethyl-[1,2,4]triazolo[1,5-a]pyrazin-2-yl)-ethyl]-4-methyl-quinoline], the IC50 came out at 18 nM.

In turn, `Cc1ncc(C)n2nc(CCc3ccc4ccc(F)cc4n3)nc12` [2-[2-(5,8-Dimethyl-[1,2,4]triazolo[1,5-a]pyrazin-2-yl)-ethyl]-7-fluoro-quinoline] yielded an IC50 of 15 nM.

For the compound `COc1ccc(C)n2nc(CCc3cc(C)c4ccccc4n3)nc12` [2-[2-(8-Methoxy-5-methyl-[1,2,4]triazolo[1,5-a]pyridin-2-yl)-ethyl]-4-methyl-quinoline], the midpoint of inhibition, the IC50, lay at 42 nM.

In turn, `Cc1cc(C)n2cc(/C=C/c3ccc4ccccc4n3)nc2n1` [2-[(E)-2-(5,7-Dimethyl-imidazo[1,2-a]pyrimidin-2-yl)-vinyl]-quinoline] registered an IC50 of 320 nM.

Turning to `Cc1ncc(C)n2nc(CCc3ccc4ccc(Cl)cc4n3)nc12` [7-Chloro-2-[2-(5,8-dimethyl-[1,2,4]triazolo[1,5-a]pyrazin-2-yl)-ethyl]-quinoline], the concentration for half-maximal inhibition (IC50) was found to be 52 nM.

Regarding `Cc1ncc(C)n2nc(CCc3ccc4ccc(C(F)(F)F)cc4n3)nc12` [2-[2-(5,8-Dimethyl-[1,2,4]triazolo[1,5-a]pyrazin-2-yl)-ethyl]-7-trifluoromethyl-quinoline], the 50% inhibitory concentration (IC50) worked out at 240 nM.

`COc1cc(CCc2nc3c(C)ncc(C)n3n2)nc2ccccc12` [2-[2-(5,8-Dimethyl-[1,2,4]triazolo[1,5-a]pyrazin-2-yl)-ethyl]-4-methoxy-quinoline] returned an IC50 of 12 nM.

On to `Cc1cnc(C)n2nc(CCc3ccc4cc(C(C)C)ccc4n3)nc12` [2-[2-(5,8-Dimethyl-[1,2,4]triazolo[1,5-c]pyrimidin-2-yl)-ethyl]-6-isopropyl-quinoline], for which the half-inhibitory concentration (IC50) was 61 nM.

In turn, `Cc1ncc(C)n2nc(CCc3ccc4c(F)cccc4n3)nc12` [2-[2-(5,8-Dimethyl-[1,2,4]triazolo[1,5-a]pyrazin-2-yl)-ethyl]-5-fluoro-quinoline] gave a 50% inhibitory concentration (IC50) of 120 nM.

As for `Cc1ncc(C)n2nc(CCc3ccc4cc(C#N)c(Cl)cc4n3)nc12` [7-Chloro-2-[2-(5,8-dimethyl-[1,2,4]triazolo[1,5-a]pyrazin-2-yl)-ethyl]-quinoline-6-carbonitrile], the half-maximal inhibitory concentration (IC50) is 59 nM.
